# Activity calls are given as the source filed them. The calls are words filed in the database; no cut-off is given here.
# Experiments:
# [1] = system: Human adenovirus 5; assay: Antiviral activity against HAdV5 infected in 293beta5 cells assessed as inhibition of plaque formation at 10 uM after 7 days by GFP reporter gene assay relative to control; format: functional; settings: Human mastadenovirus C, 293beta5, 168 h
# [2] = system: Human adenovirus 5; assay: Antiviral activity against HAdV5 infected in human A549 cells assessed as inhibition of viral entry preincubated for 45 mins followed by cell addition measured after 48 hrs by GFP reporter gene assay; format: functional, organism-based; settings: for IC50: Human mastadenovirus C
# [3] = Antiviral activity against HAdV16 infected in human A549 cells assessed as reduction in viral yield at 50 uM after 48 hrs by virus burst size assay relative to control; format: functional, Human adenovirus 16
# [4] = system: Human adenovirus 5; assay: Antiviral activity against HAdV5 infected in human A549 cells assessed as inhibition of viral entry at 50 uM preincubated for 45 mins followed by cell addition measured after 48 hrs by GFP reporter gene assay relative to control; format: functional; settings: Human mastadenovirus C
# [5] = Selectivity index, ratio of CC50 for human A549 cells to IC50 for inhibition of HAdV5 plaque formation in 293beta5 cells; format: functional
# [6] = Antiviral activity against HAdV16 infected in 293beta5 cells assessed as inhibition of plaque formation after 7 days by GFP reporter gene assay; format: functional, cell-based, Human adenovirus 16; settings: Human mastadenovirus B, 293beta5, 168 h
# [7] = system: A549; assay: Effect on GAPDH gene expression in human A549 cells at 50 uM after 24 hrs by quantitative real time PCR method; format: ADME, cell-based; settings: a549, 24 h
# [8] = system: Human adenovirus 5; assay: Antiviral activity against HAdV5 infected in human A549 cells assessed as reduction in viral yield at 50 uM after 48 hrs by virus burst size assay relative to control; format: functional
# [9] = system: Human adenovirus 5; assay: Antiviral activity against HAdV5 infected in 293beta5 cells assessed as inhibition of plaque formation after 7 days by GFP reporter gene assay; format: functional, organism-based; settings: for IC50: Human mastadenovirus C, 293beta5, 168 h
# [10] = system: Human adenovirus 5; assay: Antiviral activity against HAdV5 infected in human A549 cells assessed as inhibition of viral genome entry in nucleus by measuring nuclear associated viral DNA level at 50 uM after 45 mins by real time PCR method (reference value: 78.55 +/- 1.37%); format: functional; set-up: scale not given: the % may be the effect or the level left
# [11] = Selectivity index, ratio of CC50 for human A549 cells to IC50 for inhibition of HAdV16 plaque formation in 293beta5 cells; format: functional
# [12] = system: Human adenovirus 5; assay: Antiviral activity against HAdV5 infected in human A549 cells assessed as inhibition of viral DNA replication at 50 uM after 24 hrs by quantitative real time PCR method relative to control; format: functional; settings: Human mastadenovirus C, A549, 24 h
# [13] = Cytotoxicity against human A549 cells assessed as cell viability after 48 hrs by Alamar blue assay; format: cell-based
# [14] = system: Human adenovirus 5; assay: Antiviral activity against HAdV5 assessed as inhibition of E1A mRNA transcription measured 6 hrs post infection; format: functional, organism-based
IC50 [2] [µM],IC50 [6] [µM],IC50 [9] [µM],Compound,inhibition at 10 µM [1] [%],inhibition [2],fold change (FC) [3],inhibition at 50 µM [4] [%],Ratio CC50/IC50 [5],Activity [7],fold change (FC) [8],inhibition [9],Activity [10] [%],Ratio CC50/IC50 [11],inhibition at 50 µM [12] [%],CC50 at 48 h [13] [µM],inhibition [14]
26.7,3.5,2.1,O=C(c1cc2ccccc2o1)N1CCN(C(=O)Nc2ccc([N+](=O)[O-])cc2)C(c2ccccc2)C1 (configuration not stated),100,Dose-dependent effect,34.6,84,93.5,Non-toxic,35.7,Dose-dependent effect,77.99,55.4,80.9,194,
32.5,4.8,3.4,CC(C)(C)OC(=O)N1CCN(C(=O)Nc2ccc([N+](=O)[O-])cc2)C(c2ccccc2)C1 (configuration not stated),96,Dose-dependent effect,265.5,80,47.3,Non-toxic,211.7,Dose-dependent effect,77.96,33.6,80.7,161,
,1.8,1.1,O=C(c1cc2ccccc2o1)N1CCN(C(=O)Nc2cc(C(F)(F)F)ccc2Cl)C(c2ccccc2)C1 (configuration not stated),97,,33.2,30,116.2,,60.3,Dose-dependent effect,85,72.7,,131,inactive

# — ChEMBL document CHEMBL3826947, “New 4-Acyl-1-phenylaminocarbonyl-2-phenylpiperazine Derivatives as Potential Inhibitors of Adenovirus Infection. Synthesis, Biological Evaluation, and Structure-activity Relationships” (J Med Chem, 2016)
